We go through seven molecules from publication PMC6658782, “The Novel Arylamidine T-2307 Selectively Disrupts Yeast Mitochondrial Function by Inhibiting Respiratory Chain Complexes” (Antimicrobial Agents and Chemotherapy, 2019).

In experiment [1] the test system is whole yeast cells. In words: Oxygen consumption of whole yeast cells (oxygen electrode). The format is cell-based, Saccharomyces cerevisiae. The note with it: T-2307 30, 100, 300, 1,000 μM; antimycin A 10 μg/ml; CCCP 4 μM; 23°C; 3 × 10^7 cells/ml.
Experiment [2] relates to NADH dehydrogenase. Nature of the experiment: NADH dehydrogenase activity, C. albicans. It is filed as biochemical, Candida albicans. The conditions noted are these: C. albicans; 10 μM rotenone.
Experiment [3] concerns the target respiratory chain complex I (Bos taurus, UniProt P03887+P17694+P42026). Nature of the experiment: MitoCheck complex I activity assay, bovine heart mitochondria. It is filed as biochemical. The note with it: bovine heart; 2 μM rotenone; read-out: Inhibition (%) of positive control, complex I. Here is the method:
The enzymatic activities of bovine heart mitochondrial respiratory chain complexes were determined using MitoCheck complex I, complex II/III, and complex IV activity assay kits (Cayman Chemical, Ann Arbor, MI, USA). Bovine heart mitochondria from these kits were used for experiments. The experiments were performed following the manufacturer’s instructions. In the experiments, 2 μM rotenone, 1 mM KCN, and both 1 mM TTFA and 5 μg/ml antimycin A served as positive controls for the inhibition of complex I, complex IV, and complexes II plus III, respectively.
In all experiments, the reaction rate of each enzyme was determined by calculating the slope of the linear portion of the curve. Complex I activity in C. albicans was calculated by subtracting the rotenone-insensitive enzymatic activity (with 10 μM rotenone) from the NADH dehydrogenase activity (without rotenone).
OCRs in isolated mitochondria and intracellular ATP levels were compared between the control and treatment groups using the parametric Dunnett’s multiple-comparison test. P values of <0.05 (comparison of multiple groups) were considered statistically significant. IC50 values were determined from dose-response curves compared with untreated control samples using a four-parameter logistic curve-fitting analysis. Data were analyzed using JMP 13.0 (SAS Institute Japan Ltd., Tokyo, Japan).

Experiment [4] concerns the target respiratory chain complex II + III (Saccharomyces cerevisiae, UniProt P00163+P07143+P08067). Nature of the experiment: Respiratory chain enzymatic activity, complexes II plus III, S. cerevisiae. The conditions noted are these: S. cerevisiae; 10 mM malonic acid, 10 μg/ml antimycin A; read-out: Inhibition (%) of positive control, Complex II+III. It is filed as biochemical.

For experiment [5], the target named is T1, respiratory chain complex II + III (Candida albicans, UniProt A0A1D8PHA3+A0A1D8PJX3+P0C8L0).
T1 sequence (P0C8L0 1-387): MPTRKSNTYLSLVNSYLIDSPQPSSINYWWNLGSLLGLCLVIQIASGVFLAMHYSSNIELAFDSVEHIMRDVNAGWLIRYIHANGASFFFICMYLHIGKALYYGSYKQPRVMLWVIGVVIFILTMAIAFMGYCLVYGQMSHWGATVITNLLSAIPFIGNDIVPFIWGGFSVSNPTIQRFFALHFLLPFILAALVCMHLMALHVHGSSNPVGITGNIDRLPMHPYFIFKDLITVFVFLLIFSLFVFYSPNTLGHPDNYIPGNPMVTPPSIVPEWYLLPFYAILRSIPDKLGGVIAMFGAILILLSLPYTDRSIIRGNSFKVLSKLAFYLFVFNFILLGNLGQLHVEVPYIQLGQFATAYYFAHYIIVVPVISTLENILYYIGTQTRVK
T1 sequence (A0A1D8PHA3 43-288): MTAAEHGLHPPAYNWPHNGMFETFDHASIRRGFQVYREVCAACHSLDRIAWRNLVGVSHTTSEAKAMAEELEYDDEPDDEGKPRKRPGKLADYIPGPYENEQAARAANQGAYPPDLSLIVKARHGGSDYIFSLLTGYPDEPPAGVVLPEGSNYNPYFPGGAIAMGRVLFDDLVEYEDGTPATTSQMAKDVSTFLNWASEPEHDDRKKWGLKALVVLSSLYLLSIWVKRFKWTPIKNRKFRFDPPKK
T1 sequence (A0A1D8PJX3 30-213): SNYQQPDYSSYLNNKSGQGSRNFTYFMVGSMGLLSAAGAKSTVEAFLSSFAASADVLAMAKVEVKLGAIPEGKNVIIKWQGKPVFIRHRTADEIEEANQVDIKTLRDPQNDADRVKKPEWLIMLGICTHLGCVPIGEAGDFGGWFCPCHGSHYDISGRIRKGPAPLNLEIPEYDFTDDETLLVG
Nature of the experiment: Respiratory chain enzymatic activity, complexes II plus III, C. albicans. It is filed as biochemical. The conditions noted are these: C. albicans; 10 mM malonic acid, 10 μg/ml antimycin A; read-out: Inhibition (%) of positive control, Complex II+III.

Experiment [6] deals with respiratory chain complex II + III (Bos taurus, UniProt P00125+P00157+P13272). In words: MitoCheck complex II/III activity assay, bovine heart mitochondria. The format is biochemical. The conditions noted are these: bovine heart; 1 mM TTFA, 5 μg/ml antimycin A; read-out: Inhibition (%) of positive control, Complex II+III.
Experiment [7] relates to Saccharomyces cerevisiae. Nature of the experiment: Intracellular ATP levels in yeast (luminescence assay). It is filed as cell-based. The note with it: 8 h exposure at 30°C, semisynthetic medium; antimycin A 0.5 μg/ml. The method, then:
Intracellular ATP levels were measured using a previously described method with the following modifications ([25]). S. cerevisiae was grown overnight in a semisynthetic medium (per liter: 20 g of lactate, 0.5 g of glucose, 3 g of yeast extract, 1 g of KH2PO4, 1 g of NH4Cl, 0.5 g of CaCl2·2H2O, 0.5 g of NaCl, and 0.6 g of MgCl2·6H2O; adjusted to pH 5.5 with NaOH). The cells were harvested during the logarithmic-growth phase by centrifugation (3,000 × g at room temperature for 5 min). They were then washed and resuspended in distilled water. The suspension was diluted in a semisynthetic medium to yield 1 × 10^6 cells/ml. After 5 min of incubation at 30°C, T-2307 and antimycin A were added to the suspension. Further, the cells were incubated for 8 h at 30°C. Subsequently, the cells were collected by centrifugation (4,200 × g at 4°C for 5 min). After washes performed with phosphate-buffered saline (PBS; pH 7.2), the cells were resuspended in PBS and diluted to yield 1 × 10^6 cells/ml. ATP levels were measured using the BacTiter-Glo microbial cell viability assay (Promega, Madison, WI, USA), following the manufacturer’s instructions. Luminescence was measured using a microplate reader POLARstar Optima (BMG Labtech GmbH). To determine the viable cell counts, the cell suspension was diluted with PBS and spread on YPD agar. After a 2-day incubation at 30°C, colonies were counted. The intracellular ATP level is expressed as relative light units (RLU)/CFU.

Experiment [8] has as its system isolated yeast mitochondria. Nature of the experiment: Mitochondrial oxygen consumption (MitoXpress probe). The format is biochemical, Saccharomyces cerevisiae. Here is the method: S. cerevisiae from frozen stock (−80°C) was inoculated into yeast extract-peptone-glucose (YPD) medium (1% yeast extract, 2% peptone, and 2% glucose) and grown for 24 h at 30°C. The cultured cells were subcultured into yeast extract-peptone-galactose (YPGal) medium (1% yeast extract, 2% peptone, 2% galactose, and 0.1% glucose) and incubated overnight with continuous shaking at 30°C. When the optical density at 600 nm reached approximately 1.0, the cells were collected by centrifugation (3,000 × g at room temperature for 5 min). Intact mitochondria were isolated as per a previously described protocol ([35]) with minor modifications as follows. Yeast cells were converted to spheroplasts by incubation with Zymolyase-20T (Nacalai Tesque, Inc., Kyoto, Japan) (4 mg of Zymolyase-20T/g [wet weight] of cells) and disrupted using a Dounce homogenizer. The crude mitochondrial fraction was isolated by differential centrifugation ([35]). […]. The mitochondrial protein concentration was determined using the DC protein assay (Bio-Rad Laboratories, Inc., Hercules, CA, USA) following the manufacturer’s instructions. The mitochondrial stock solution was maintained on ice during the oxygen consumption experiment.
The mitochondrial oxygen consumption was measured using a phosphorescent oxygen-sensitive probe, MitoXpress-Xtra (Agilent Technologies, Santa Clara, CA, USA), as described previously ([16], [36]). Succinate was used as a respiratory substrate in this assay. […] A microplate reader, PHERAstar Plus (BMG Labtech GmbH, Ortenberg, Germany), was used to read. The time-resolved fluorescence protocol was set to read the plate at 1.5-min intervals for 60 min at an excitation wavelength of 337 nm, an emission wavelength of 665 nm, a delay time of 40 μs, and a gate time of 100 μs at 30°C.
[…]. […] For quantitative assessment, OCR was determined from the slope of the initial 7.5 min. OCR is expressed as micromolar of O2 per minute per milligram of protein.
The drug concentration was expressed as micromoles per milligram of protein. […]

In experiment [9] the target is respiratory chain complex II (Saccharomyces cerevisiae, UniProt P21801+P33421+P37298+Q00711). In words: Respiratory chain enzymatic activity, complex II, S. cerevisiae. The format is biochemical. The note with it: S. cerevisiae; 10 mM malonic acid; read-out: Inhibition (%) of positive control, Complex II.
respiratory chain complex II (Saccharomyces cerevisiae, UniProt P21801+P33421+P37298+Q00711), sequence (P21801 21-266): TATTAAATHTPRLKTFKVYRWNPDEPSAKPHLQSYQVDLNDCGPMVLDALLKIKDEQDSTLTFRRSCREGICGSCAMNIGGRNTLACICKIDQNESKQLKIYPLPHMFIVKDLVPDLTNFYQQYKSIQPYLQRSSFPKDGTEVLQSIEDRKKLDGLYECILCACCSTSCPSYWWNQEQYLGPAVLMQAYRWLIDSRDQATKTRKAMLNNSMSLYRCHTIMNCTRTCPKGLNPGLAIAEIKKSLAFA
respiratory chain complex II (Saccharomyces cerevisiae, UniProt P21801+P33421+P37298+Q00711), sequence (P33421 51-198): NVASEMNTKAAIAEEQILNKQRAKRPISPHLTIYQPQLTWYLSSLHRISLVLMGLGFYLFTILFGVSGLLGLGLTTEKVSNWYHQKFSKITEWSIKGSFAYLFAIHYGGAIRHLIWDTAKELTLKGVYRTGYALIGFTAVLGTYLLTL
respiratory chain complex II (Saccharomyces cerevisiae, UniProt P21801+P33421+P37298+Q00711), sequence (P37298 32-181): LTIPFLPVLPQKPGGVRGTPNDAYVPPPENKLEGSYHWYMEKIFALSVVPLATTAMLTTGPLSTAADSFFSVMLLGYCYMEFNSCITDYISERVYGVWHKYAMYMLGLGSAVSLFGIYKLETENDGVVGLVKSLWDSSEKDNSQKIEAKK
respiratory chain complex II (Saccharomyces cerevisiae, UniProt P21801+P33421+P37298+Q00711), sequence (Q00711 29-640): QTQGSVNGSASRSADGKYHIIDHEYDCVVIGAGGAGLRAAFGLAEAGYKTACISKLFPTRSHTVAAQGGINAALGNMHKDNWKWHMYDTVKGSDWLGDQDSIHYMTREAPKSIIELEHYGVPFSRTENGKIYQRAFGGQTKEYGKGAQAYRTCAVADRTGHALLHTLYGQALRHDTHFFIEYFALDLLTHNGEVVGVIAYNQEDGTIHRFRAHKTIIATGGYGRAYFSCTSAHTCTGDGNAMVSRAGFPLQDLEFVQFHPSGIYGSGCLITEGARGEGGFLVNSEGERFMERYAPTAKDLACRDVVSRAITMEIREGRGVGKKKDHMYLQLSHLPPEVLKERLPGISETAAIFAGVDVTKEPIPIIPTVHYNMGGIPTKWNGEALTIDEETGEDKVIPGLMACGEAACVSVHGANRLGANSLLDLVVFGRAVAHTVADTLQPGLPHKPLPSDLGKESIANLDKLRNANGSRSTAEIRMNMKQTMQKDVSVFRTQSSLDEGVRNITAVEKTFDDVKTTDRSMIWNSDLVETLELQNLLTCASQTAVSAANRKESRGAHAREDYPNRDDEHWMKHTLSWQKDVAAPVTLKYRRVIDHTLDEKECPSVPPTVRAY
Experiment [10] addresses respiratory chain complex II (Candida albicans, UniProt Q59QN7+Q5A1E8+Q5AJZ8+Q5ALU6). In words: Respiratory chain enzymatic activity, complex II, C. albicans. It is filed as biochemical. The note with it: 10 mM malonic acid, read-out: Inhibition (%) of positive control, Complex II.
In experiment [11] the test system is complex III. The conditions noted are these: cited from earlier work.

respiratory chain complex II (Candida albicans, UniProt Q59QN7+Q5A1E8+Q5AJZ8+Q5ALU6), sequence (Q5A1E8 26-641): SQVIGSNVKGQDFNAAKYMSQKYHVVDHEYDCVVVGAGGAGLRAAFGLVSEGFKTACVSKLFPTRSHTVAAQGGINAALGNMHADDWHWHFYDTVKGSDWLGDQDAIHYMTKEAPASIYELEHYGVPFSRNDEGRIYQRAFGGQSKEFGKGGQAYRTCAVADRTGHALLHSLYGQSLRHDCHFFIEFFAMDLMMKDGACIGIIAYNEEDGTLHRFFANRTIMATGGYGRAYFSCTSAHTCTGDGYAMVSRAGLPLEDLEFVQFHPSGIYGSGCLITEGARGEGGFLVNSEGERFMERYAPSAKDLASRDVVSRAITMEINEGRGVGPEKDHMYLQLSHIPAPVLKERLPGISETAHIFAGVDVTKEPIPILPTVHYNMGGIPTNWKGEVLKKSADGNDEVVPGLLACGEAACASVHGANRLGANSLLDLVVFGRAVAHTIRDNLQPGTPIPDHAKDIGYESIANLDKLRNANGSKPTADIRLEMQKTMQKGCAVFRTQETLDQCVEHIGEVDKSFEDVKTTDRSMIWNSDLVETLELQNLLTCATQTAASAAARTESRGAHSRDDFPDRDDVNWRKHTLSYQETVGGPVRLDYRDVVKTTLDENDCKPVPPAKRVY
respiratory chain complex II (Candida albicans, UniProt Q59QN7+Q5A1E8+Q5AJZ8+Q5ALU6), sequence (Q59QN7 20-263): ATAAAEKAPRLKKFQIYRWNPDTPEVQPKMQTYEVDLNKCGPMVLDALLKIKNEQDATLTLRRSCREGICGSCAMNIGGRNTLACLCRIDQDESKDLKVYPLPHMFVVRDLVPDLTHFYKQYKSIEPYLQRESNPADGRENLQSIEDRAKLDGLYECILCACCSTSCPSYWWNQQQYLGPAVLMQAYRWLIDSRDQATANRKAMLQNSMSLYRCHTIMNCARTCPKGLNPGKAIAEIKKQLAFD
respiratory chain complex II (Candida albicans, UniProt Q59QN7+Q5A1E8+Q5AJZ8+Q5ALU6), sequence (Q5ALU6 32-176): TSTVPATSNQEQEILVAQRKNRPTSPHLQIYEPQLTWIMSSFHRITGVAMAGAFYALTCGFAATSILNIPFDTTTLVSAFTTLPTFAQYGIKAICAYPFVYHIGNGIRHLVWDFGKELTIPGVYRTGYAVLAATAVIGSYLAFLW
respiratory chain complex II (Candida albicans, UniProt Q59QN7+Q5A1E8+Q5AJZ8+Q5ALU6), sequence (Q5AJZ8 28-164): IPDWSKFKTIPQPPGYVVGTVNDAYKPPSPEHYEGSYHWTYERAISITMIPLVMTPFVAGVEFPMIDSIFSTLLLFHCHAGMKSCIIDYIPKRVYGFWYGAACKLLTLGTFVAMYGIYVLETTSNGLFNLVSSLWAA

As to `N#CC(C#N)=NNc1cccc(Cl)c1` [CCCP, carbonyl cyanide m-chlorophenylhydrazone], the “effect on oxygen consumption in whole yeast cells” value in experiment [1] is reported as “stimulated oxygen consumption”.

For orientation: inhibition means the change of the read-out against control, counted positive when it falls. For `C=C(C)[C@H]1Cc2c(ccc3c2O[C@@H]2COc4cc(OC)c(OC)cc4[C@@H]2C3=O)O1` [Rotenone, rotenone, reference compound], the “Inhibition (%) of positive control, NADH dehydrogenase (including Complex I)” value in experiment [2] was found to be 59%. In [3], the inhibition at 2 µM turned out to be 68%.

For the molecule `CCCCCC[C@H]1C(=O)O[C@H](C)[C@H](NC(=O)c2cccc(NC=O)c2O)C(=O)O[C@@H](C)[C@@H]1OC(=O)CC(C)C` [Antimycin A], the “effect on oxygen consumption in whole yeast cells” value in experiment [1] was “completely and immediately inhibited respiration”. For the same molecule, the inhibition at 10 µg/mL in [4] is 97%; in experiment [5], 98%. Further, the inhibition at 5 µg/mL in experiment [6] amounted to 92%. For the same molecule, in experiment [7], the “effect on intracellular ATP level” value is “significantly decreased”.

With Oligomycin A, the “effect on mitochondrial oxygen consumption rate (OCR)” value in [8] (ADP-stimulated condition (succinate + ADP)) is listed as “significantly inhibited”; in experiment [8] (basal condition (succinate, absence of ADP)) it was “did not decrease the OCR”.

For `O=C(CC(=O)C(F)(F)F)c1cccs1` [TTFA, 2-thenoyltrifluoroacetone, reference compound], in [6], the inhibition at 1000 µM was found to be 86%.

Consider `O=C(O)CC(=O)O` [Malonic acid], for which the inhibition at 10000 µM in [9] worked out at 100%; in experiment [4] it was 97%; in [10] it was 100%; in experiment [5], 98%.

In the case of `C/C=C/[C@@H]1[C@H]2C[C@@H](C)CC[C@@H]2C(C)=C[C@H]1C(=O)c1c(O)c(-c2ccc(O)cc2)c[nH]c1=O` [ilicicolin H], the “selectivity between yeast and bovine complex III” value in [11] is greater than 70 fold.
